Assay results published in patent publication US9273033B2, “Substituted pyridone derivatives as PDE10 inhibitors” (Merck Sharp & Dohme Corp., priority 2012, dated 2016).

molecular target: human PDE10A2 (Homo sapiens (Human), UniProt Q9Y233); test: PDE10 fluorescence polarization (IMAP FP) inhibition assay; format: biochemical; details: human PDE10A2, FAM-labeled cAMP substrate, read-out: PDE10A Ki
Method: The activity of the compounds in accordance with the present invention as PDE10 inhibitors may be readily determined without undue experimentation using a fluorescence polarization (FP) methodology that is well known in the art (Huang, W., et al., J. Biomol Screen, 2002, 7: 215).
In a typical experiment the PDE10 inhibitory activity of the compounds of the present invention was determined in accordance with the following experimental method. PDE10A2 was amplified from human fetal brain cDNA (Clontech, Mountain View, Calif.) using a forward primer corresponding to nucleotides 56-77 of human PDE10A2 (Accession No. AF127480, Genbank Identifier 4894716), containing a Kozak consensus sequence, and a reverse primer corresponding to nucleotides 2406-2413 of human PDE10A2 (Accession No. AF127480, Genbank Identifier 4894716). Amplification with Easy-A polymerase (Stratagene, La Jolla, Calif.) was 95° C. for 2 minutes followed by thirty three cycles of 95° C. for 40 seconds, 55° C. for 30 seconds, and 72° C. for 2 minutes 48 seconds. Final extension was 72° C. for 7 minutes. The PCR product was TA cloned into pcDNA3.2-TOPO (Invitrogen, Carlsbad, Calif.) according to standard protocol. AD293 cells with 70-80% confluency were transiently transfected with human PDE10A2/pcDNA3.2-TOPO using Lipofectamine 2000 according to manufacturer specifications (Invitrogen, Carlsbad, Calif.). Cells were harvested 48 hours post-transfection and lysed by sonication (setting 3, 10×5 sec pulses) in a buffer containing 20 mM HEPES, 1 mM EDTA and protease inhibitor cocktail (Roche). Lysate was collected by centrifugation at 75,000×g for 20 minutes. Supernatant containing the cytoplasmic fraction was used for evaluation of PDE10A2 activity. The fluorescence polarization assay for cyclic nucleotide phosphodiesterases was performed using an IMAP® FP kit supplied by Molecular Devices, Sunnyvale, Calif. (product # R8139). IMAPU technology has been applied previously to phosphodiesterase assays (Huang, W., et al., J. Biomol Screen, 2002, 7: 215). Assays were performed at room temperature in 384-well microtiter plates with an incubation volume of 20.2 μL. Solutions of test compounds were prepared in DMSO and serially diluted with DMSO to yield 8 μL of each of 10 solutions differing by 3-fold in concentration, at 32 serial dilutions per plate. 100% inhibition is determined using a known PDE10 inhibitor, which can be any compound that is present at 5,000 times its Ki value in the assay described as follows, such as papaverine (see Siuciak, et al. Neuropharmacology (2006) 51:386-396; Becker, et al. Behav Brain Res (2008) 186(2):155-60; Threlfell, et al., J Pharmacol Exp Ther (2009) 328(3):785-795), 2-{4-[pyridin-4-yl-1-(2,2,2-trifluoroethyl)-1H-pyrazol-3-yl]phenoxymethyl}quinoline succinic acid or 2-[4-(1-methyl-4-pyridin-4-yl-1H-pyrazol-3-yl)-phenoxymethyl]quinoline succinic acid (see Schmidt, et al. J Pharmacol Exp Ther (2008) 325:681-690; Threlfell, et al., J Pharmacol Exp Ther (2009) 328(3): 785-795). 0% of inhibition is determined by using DMSO (1% final concentrations).
A Labcyte Echo 555 (Labcyte, Sunnyvale, Calif.) is used to dispense 200 nL from each well of the titration plate to the 384 well assay plate. A solution of enzyme (1/1600 dilution from aliquots; sufficient to produce 20% substrate conversion) and a separate solution of FAM-labeled cAMP PDE from Molecular Devices (product # R7506), at a final concentration of 50 nM are made in the assay buffer (10 mM Tris HCl, pH 7.2, 10 mM MgCl2, 0.05% NaN3 0.01% Tween-20, and 1 mM DTT). The enzyme and the substrate are then added to the assay plates in two consecutive additions of 10 μL, and then shaken to mix. The reaction is allowed to proceed at room temperature for 30 minutes. A binding solution is then made from the kit components, comprised of 80% Solution A, 20% Solution B and binding reagent at a volume of 1/600 the total binding solution.

Chain of human PDE10A2 (Q9Y233 267-1055): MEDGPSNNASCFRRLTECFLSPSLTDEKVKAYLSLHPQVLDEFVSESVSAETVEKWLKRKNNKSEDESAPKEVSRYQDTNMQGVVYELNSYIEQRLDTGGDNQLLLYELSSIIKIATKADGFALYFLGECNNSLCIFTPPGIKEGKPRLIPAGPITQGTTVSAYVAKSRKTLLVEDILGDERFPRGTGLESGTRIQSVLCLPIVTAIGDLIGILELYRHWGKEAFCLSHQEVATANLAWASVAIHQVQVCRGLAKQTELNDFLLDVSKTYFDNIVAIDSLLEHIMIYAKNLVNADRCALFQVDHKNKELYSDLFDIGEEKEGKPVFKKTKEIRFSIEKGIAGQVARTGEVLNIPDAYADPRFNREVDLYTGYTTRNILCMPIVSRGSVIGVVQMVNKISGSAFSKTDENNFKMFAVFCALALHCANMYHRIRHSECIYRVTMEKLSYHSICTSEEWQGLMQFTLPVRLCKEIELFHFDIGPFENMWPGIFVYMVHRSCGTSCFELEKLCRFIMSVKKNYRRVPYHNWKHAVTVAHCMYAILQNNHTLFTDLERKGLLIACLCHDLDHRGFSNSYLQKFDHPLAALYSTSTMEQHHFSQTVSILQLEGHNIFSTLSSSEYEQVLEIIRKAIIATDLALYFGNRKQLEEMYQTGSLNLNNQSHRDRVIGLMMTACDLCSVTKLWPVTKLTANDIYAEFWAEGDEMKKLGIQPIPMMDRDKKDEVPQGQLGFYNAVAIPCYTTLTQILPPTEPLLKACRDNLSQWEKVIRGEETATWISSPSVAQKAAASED

SMILES | Ki
Cc1ncc(-c2ccc(=O)n(C(C)C)c2)c(OC[C@H]2C[C@@H]2c2ccc3ccccc3n2)n1 [Example 9, 1-isopropyl-5-(2-methyl-4-(((1S,2S)-2-(quinolin-2-yl)cyclopropyl)methoxy)pyrimidin-5-yl)pyridin-2(1H)-one] | 0.014 nM
Cc1ccc([C@H]2C[C@@H]2COc2nc(C)ncc2-c2cc(F)c(=O)n(C)c2)nc1 [Example 25, 3-fluoro-1-methyl-5-(2-methyl-4-(((1S,2S)-2-(5-methylpyridin-2-yl)cyclopropyl)methoxy)pyrimidin-5-yl)pyridin-2(1H)-one] | 1.55 nM
Cc1ncc(-c2ccc(=O)n(C)c2)c(OC[C@H]2C[C@@H]2c2ccc3ccccc3n2)n1 [Example 29, 1-methyl-5-(2-methyl-4-(((1S,2S)-2-(quinolin-2-yl)cyclopropyl)methoxy)pyrimidin-5-yl)pyridin-2(1H)-one] | 0.052 nM
COCCn1c(C)c(-c2cnc(C)nc2OC[C@H]2C[C@@H]2c2ccc3ccccc3n2)ccc1=O [Example 31, 1-(2-methoxyethyl)-6-methyl-5-(2-methyl-4-(((1S,2S)-2-(quinolin-2-yl)cyclopropyl)methoxy)pyrimidin-5-yl)pyridin-2(1H)-one] | 0.045 nM
COc1ccc([C@H]2C[C@@H]2COc2nc(C)ncc2-c2ccn(CC(F)(F)F)c(=O)c2)nc1 [Example 121, 4-(4-(((1S,2S)-2-(5-methoxypyridin-2-yl)cyclopropyl)methoxy)-2-methylpyrimidin-5-yl)-1-(2,2,2-trifluoroethyl)pyridin-2(1H)-one] | 0.299 nM
COc1ccc([C@H]2C[C@@H]2COc2nc(C)ncc2-c2ccn(CC(=O)O)c(=O)c2)nc1 [Example 134, 2-(4-(4-(((1S,2S)-2-(5-methoxypyridin-2-yl)cyclopropyl)methoxy)-2-methylpyrimidin-5-yl)-2-oxopyridin-1(2H)-yl)acetic acid] | 9.85 nM
COCCn1ccc(-c2cnc(C)nc2OC[C@H]2C[C@@H]2c2ccc(OC)cn2)cc1=O [Example 118, 1-(2-methoxyethyl)-4-(4-(((1S,2S)-2-(5-methoxypyridin-2-yl)cyclopropyl)methoxy)-2-methylpyrimidin-5-yl)pyridin-2(1H)-one] | 0.553 nM
Cc1ncc(-c2cc(=O)[nH]cc2C)c(OC[C@H]2C[C@@H]2c2ccc3ccccc3n2)n1 [Example 81, 5-methyl-4-(2-methyl-4-(((1S,2S)-2-(quinolin-2-yl)cyclopropyl)methoxy)pyrimidin-5-yl)pyridin-2(1H)-one] | 0.011 nM
COC(=O)Cn1cc(-c2cnc(C)nc2OC[C@H]2C[C@@H]2c2ccc(C)cn2)ccc1=O [Example 1, methyl 2-(5-(2-methyl-4-(((1S,2S)-2-(5-methylpyridin-2-yl)cyclopropyl)methoxy)pyrimidin-5-yl)-2-oxopyridin-1(2H)-yl)acetate] | 4.39 nM
CCc1cc(-c2cnc(C)nc2OC[C@H]2C[C@@H]2c2ccc(C)cn2)cn(C)c1=O [Example 55, 3-ethyl-1-methyl-5-(2-methyl-4-(((1S,2S)-2-(5-methylpyridin-2-yl)cyclopropyl)methoxy)pyrimidin-5-yl)pyridin-2(1H)-one] | 0.347 nM
Cc1ccc([C@H]2C[C@@H]2COc2nc(C)ncc2-c2cc(=O)n(C)cn2)nc1 [Example 141, 3-methyl-6-(2-methyl-4-(((1S,2S)-2-(5-methylpyridin-2-yl)cyclopropyl)methoxy)pyrimidin-5-yl)pyrimidin-4(3H)-one] | 5.46 nM
COCCn1cc(-c2cnc(C)nc2OC[C@H]2C[C@@H]2c2ccc(C)cn2)ccc1=O [Example 6, 1-(2-methoxyethyl)-5-(2-methyl-4-(((1S,2S)-2-(5-methylpyridin-2-yl)cyclopropyl)methoxy)pyrimidin-5-yl)pyridin-2(1H)-one] | 1.38 nM
C=CCn1ccc(-c2cnc(C)nc2OC[C@H]2C[C@@H]2c2ccc(OC)cn2)cc1=O [Example 122, 1-allyl-4-(4-(((1S,2S)-2-(5-methoxypyridin-2-yl)cyclopropyl)methoxy)-2-methylpyrimidin-5-yl)pyridin-2(1H)-one] | 0.458 nM
Cc1ccc([C@H]2C[C@@H]2COc2nc(C)ncc2-c2cn(C)c(=O)cn2)nc1 [Example 62, 1-methyl-5-(2-methyl-4-(((1S,2S)-2-(5-methylpyridin-2-yl)cyclopropyl)methoxy)pyrimidin-5-yl)pyrazin-2(1H)-one] | 12.9 nM

Results, then the compound that gave them:

Ki | SMILES
1.78 nM | COc1ccc([C@H]2C[C@@H]2COc2nc(C)ncc2-c2ccc(=O)n(CCC#N)c2)nc1 [Example 45, 3-(5-(4-(((1S,2S)-2-(5-methoxypyridin-2-yl)cyclopropyl)methoxy)-2-methylpyrimidin-5-yl)-2-oxopyridin-1(2H)-yl)propanenitrile]
12.5 nM | COc1ccc([C@H]2C[C@@H]2COc2nc(C)ncc2-c2cc(=O)n(C)cc2SC)nc1 [Example 92, 4-(4-(((1S,2S)-2-(5-methoxypyridin-2-yl)cyclopropyl)methoxy)-2-methylpyrimidin-5-yl)-1-methyl-5-(methylthio)pyridin-2(1H)-one]
0.785 nM | COc1ccc([C@H]2C[C@@H]2COc2nc(C)ncc2-c2cc(C)n(C)c(=O)c2)nc1 [Example 87, 4-(4-(((1S,2S)-2-(5-methoxypyridin-2-yl)cyclopropyl)mcthoxy)-2-methylpyrimidin-5-yl)-1,6-dimethylpyridin-2(1H)-one]
2.16 nM | Cc1ccc([C@H]2C[C@@H]2COc2nc(C)ncc2-c2cc(=O)n(C)cc2C)nc1 [Example 72, 1,5-dimethyl-4-(2-methyl-4-(((1S,2S)-2-(5-methylpyridin-2-yl)cyclopropyl)methoxy)pyrimidin-5-yl)pyridin-2(1H)-one]
0.117 nM | COc1ccc([C@H]2C[C@@H]2COc2nc(C)ncc2-c2cc(C#N)c(=O)n(C)c2C)nc1 [Example 60, 5-(4-(((1S,2S)-2-(5-methoxypyridin-2-yl)cyclopropyl)methoxy)-2-methylpyrimidin-5-yl)-1,6-dimethyl-2-oxo-1,2-dihydropyridine-3-carbonitrile]
0.185 nM | CCc1cc(-c2cnc(C)nc2OC[C@H]2C[C@@H]2c2ccc(OC)cn2)cn(C)c1=O [Example 16, 3-ethyl-5-(4-(((1S,2S)-2-(5-methoxypyridin-2-yl)cyclopropyl)methoxy)-2-methylpyrimidin-5-yl)-1-methylpyridin-2(1H)-one]
7.39 nM | COc1ccc([C@H]2C[C@@H]2COc2nc(C)ncc2-c2cc(=O)n(C)cc2C#N)nc1 [Example 89, 4-(4-(((1S,2S)-2-(5-methoxypyridin-2-yl)cyclopropyl)methoxy)-2-methylpyrimidin-5-yl)-1-methyl-6-oxo-1,6-dihydropyridine-3-carbonitrile]
1.9 nM | COc1ccc([C@H]2C[C@@H]2COc2nc(C)ncc2-c2ccc(=O)n(OC)c2)nc1 [Example 22, 1-methoxy-5-(4-(((1S,2S)-2-(5-methoxypyridin-2-yl)cyclopropyl)methoxy)-2-methylpyrimidin-5-yl)pyridin-2(1H)-one]
0.151 nM | COc1ccc([C@H]2C[C@@H]2COc2nc(C)ncc2-c2cc(OC)c(=O)n(C)c2)nc1 [Example 17, 3-methoxy-5-(4-(((1S,2S)-2-(5-methoxypyridin-2-yl)cyclopropyl)methoxy)-2-methylpyrimidin-5-yl)-1-methylpyridin-2(1H)-one]
